# Measurements: patent US7507707B2, “Methods of inducing ovulation using a non-polypeptide camp level modulator” (Laboratoires Serono SA, priority 2001, dated 2009)
# Legend:
# [1] = system: immature female rats; test: In vivo ovulation model: FSH-pretreated immature rats, oocytes counted in oviduct after 18 hours; design: species or system rat
# Description: The role of FSH in any ovulation induction regimen is for promoting follicular development and maturation, not ovulation induction.
# All injections were subcutaneous. Results are expressed as mean plus or minus standard deviations. […] The effects of Compound 1, a known PDE inhibitor are shown.
# Data represent average number of oocytes in oviducts of all rats in each group and frequency of ovulating rats. […] Results are expressed as mean plus or minus standard deviations.
# Data represent average number of oocytes in oviducts of all rats in each group and frequency of ovulating rats. Results are expressed as mean plus or minus standard deviations.
# (§1) Following FSH induced follicular maturation (2.16 IU/rat/injection; bid×2 days) Compound 2 was either injected subcutaneously (subcutis) or administered by oral gavage. Ovulation was determined 18 hours after Compound 2 administration by counting oocytes in oviduct. Data represent average number of oocytes in oviducts of all rats in each group and frequency of ovulating rats. Results are expressed as mean plus or minus standard deviations.
# as §1, with “days) […] was either” for “days) Compound 2 was either”
# [2] = system: immature rats; test: Ovulation and fertility in FSH/PMSG pretreated immature rats; assay type: in vivo, rat; settings: single subcutaneous injection
# Protocol: Follicular maturation was induced in immature rats with FSH (4.33 IU/rat/injection; bid×2 days) and Pregnant Mare's Serum Gonadotropin (PMSG) (1.5 IU/rat/injection; bid×2 days). […] FSH and PMSG induced rats were then treated with either Compound 2 (12 rats) or vehicle (12 rats) by subcutaneous administration. In one cohort of rats (6 rats per treatment), ovulation was determined 18 hours after Compound 2 or vehicle administration by counting oocytes in oviduct. To assess fertility, another cohort of rats (6 rats per treatment) were individually placed overnight in a cage together with a single adult male rat of proven fertility. The next day, male rats were removed and the females were caged together by group until the day of parturition. The number of live full-term pups observed at the time of parturition was recorded. […] Results for both ovulation and live pups are expressed as mean plus or minus standard deviations.
# [3] = system: rat ovarian granulosa cells; test: Rat ovarian granulosa cell cAMP levels, alone or with gonadotropins in vitro (cAMP specific RIA); assay type: cell-based; settings: 25 micromolar compound with subeffective (0.1 pM) gonadotropin, 48 hrs
# Protocol: Ovaries were removed from immature 25 day old, hypophysectomized, diethylstilbesterol treated Sprague-Dawley rats. The ovaries were repeatedly punctured with 27 gauge needles to liberate granulosa cells from the follicles. Cells were washed and re-suspended in McCoys 5A media+0.1% BSA+2 μM androstenedione. Viable cells in number of 100,000 were loaded into 6-well tissue culture dishes in a 1.0 ml volume (with Compound 1 and Compound 2 at a concentration of 25 micromolar, either alone or in conjunction with a low, 0.1 pM dose of gonadotropin). Plates were incubated in a 37° C. incubator, 100% humidity, 5.0% CO2 for 48 hrs. Conditioned media were assayed in a cAMP specific RIA. Results are expressed as mean plus or minus standard deviations.
# [4] = system: immature female rats; test: Follicle maturation in vivo: sub-optimal FSH with co-administered PDE inhibitor, ovulatory hCG, oocytes counted in oviduct; design: species or system rat
# Protocol: Mature ovarian follicles generated in immature female rats by treatment with a sub-optimal dose of FSH (1.08 IU/rat/injection; bid×3 days) with and without co-administration of Compound 1 (0.1, 1, 10, and 50 mg/kg/injection: bid×3 days). […] The PDE inhibitors were given in conjunction with sub-optimal doses of FSH. All injections were subcutaneously administered. […] Results are expressed as mean plus or minus standard deviations. […] As also noted in FIG. 3, a PDE inhibitor (Compound 1) inhibited (rather than stimulated) both ovulation administered at 50 mg/kg.
# [5] = single subcutaneous injection co-administered with sub-effective dose of hCG
# [6] = subcutaneous injection alone, without hCG
Compound,"ovulation (oocytes in oviduct) [1, 5]","ovulation (oocytes in oviduct) [1, 6]","ovulation (oocytes in oviduct) ([1]; oral gavage, without hCG)",ovulation (oocytes in oviduct) ([2]; 18 hours),number of live full-term pups at the time of parturition ([2]; mated overnight),cAMP levels in conditioned media [3],"ovulation (oocytes in oviduct, frequency of ovulating rats) ([4]; 50 mg/kg/injection bid x 3 days s.c. with sub-optimal FSH (1.08 IU), ovulatory hCG 20 IU)","ability of a sub-optimal dose of FSH to prepare follicles to ovulate ([4]; increasing doses 0.1, 1, 10, 50 mg/kg/injection bid x 3 days s.c. with sub-optimal FSH)"
"Clc1nc2c(N3CCCC3)nc(N3CCNCC3)nc2nc1NCc1ccccc1 [Compound 4, 7-Benzylamino-6-chloro-2-piperazino-4-pyrrolidinopteridine]",induction of ovulation,little or no ovulation,–,–,–,–,–,–
"COc1ccc(C(=O)Nc2c(Cl)cncc2Cl)cc1OC1CCCC1 [Compound 2, 3-(Cyclopentyloxy)-N-(3,5-dichloropyridin-4-yl)-4-methoxybenzamide]",–,induction of ovulation,induction of ovulation,induction of ovulation,increased number of live pups,significant increase,–,–
"COc1ccc([C@]2(C#N)CC[C@@H](C(=O)O)CC2)cc1OC1CCCC1 [Compound 1, Cis-4-cyano-4-(3-(cyclopentyloxy)-4-methoxyphenyl)cyclohexane-1-carboxylic acid]",induction of ovulation,induction of ovulation,–,–,–,significant increase,inhibited,failed to enhance
"CCOc1cc2cc(CO)c(CO)c(-c3ccnc(-n4nc(-c5cccnc5)c5ccccc5c4=O)c3)c2cc1OCC.Cl [Compound 3, 2-(4-(6,7-Diethoxy-2,3-bis(hydroxymethyl)naphthalen-1-yl)pyridin-2-yl)-4-(3-pyridyl) pthalazin-1 (2H)-one hydrochloride]",–,induction of ovulation,induction of ovulation,–,–,–,–,–
